Earlier results on 1 compound are cited in US20190185438A1 (Tonix Pharmaceuticals Holding Corp., priority 2016, published 2019).

Read-outs that look alike come from different tables or passages of the source. Marks after values point to notes of the source that are not given here.

Series [1] concerns patients with fibromyalgia. To be noted: 8 weeks.
For series [2], the system named is patients with fibromyalgia.
Where [3] appears, read: 4 mg/day, week 14, 10-point scale, p <0.001.

Take `CCOc1ccccc1O[C@@H](c1ccccc1)[C@@H]1CNCCO1` [Esreboxetine, (2S)-2-[(S)-(2-ethoxyphenoxy)-phenylmethyl]morpholine]: the Tolerability entry in series [1] was “generally well-tolerated”. Further, in series [1] (2 mg/day raised to 8 mg/day or maximum tolerated dose), the “Pain scores compared to placebo” value was “statistically significant reductions”. Besides, the “Patients discontinued due to adverse events” value in series [1] (placebo 2.3%) is on record as 8.2%. The “GFI score compared to placebo” value in series [2] (4 mg/day and 8 mg/day, 14 weeks, P=0.001) is reported as “significant improvement”. In addition, in series [2] (setting [3]), the “GFI score, treatment difference” value is given as −0.64* (10-point scale) and the “Pain score, treatment difference” value is reported as −0.74* (10-point scale). Besides, in series [2] (4 mg/day, week 14, 100-point scale, p <0.001), the “FIQ score, treatment difference” value was −7.12* (100-point. Also, the “PGIC, much improved or very much improved” value in series [2] (4 mg/day, week 14, p 0.002) is given as 41.7%**. Besides, in series [2] (14 weeks), the Tolerability result is recorded as “generally well tolerated”. Further, the “PGIC score compared to placebo” value in series [2] (all doses (4, 8, 10 mg/day), 14 weeks, P≤0.007) is recorded as “significant improvement”. Further, the “FIQ score compared to placebo” value in series [2] (all doses (4, 8, 10 mg/day), 14 weeks, P≤0.023) is “significant improvement”. Moreover, the “Pain score compared to placebo” value in series [2] (all doses (4, 8, 10 mg/day), 14 weeks, P≤0.025) was “significant improvement”.
